What was measured:
[1] = system: adalimumab-producing CHO cell line #2; test: Example 4 oligosaccharide analysis, CDM GIA-1, batch shake flasks; type: cell-based, Chinese Hamster
Protocol: (§1) For all studies with CHO cell lines described throughout this invention, samples were collected daily and measured for cell density and viability using a Cedex cell counter. Retention samples for titer analysis via Poros A method were collected by centrifugation at 12,000 RPM for 5 min when the culture viability began declining. The cultures were harvested by collecting 125 mL aliquots and centrifuging at 3,000 RPM for 30 min when culture viability was near or below 50%. All supernatants were stored at −80° C. until analysis.
(§2) For all studies, the harvest samples were Protein A purified and prepared for the oligosaccharide assay using the following procedures. As a first step in the process of establishing the identity and quantifying the oligosaccharides, they are released from the protein by enzymatic digestion with N-glycanase. Once the glycans are released, the free reducing end of each glycan is labeled by reductive amination with a fluorescent tag, 2-aminobenzamide (2-AB). The resulting labeled glycans are separated by normal-phase HPLC (NP-HPLC) in acetonitrile: 50 mM ammonium formate, pH 4.4, and detected by a fluorescence detector. Quantitation is based on the relative area percent of detected sugars. Throughout this invention, the relative area percentages of the agalactosyl fucosylated biantennary oligosaccharides, denoted as NGA2F+NGA2F-GlcNAc sum, and the galactose-containing fucosylated biantennary oligosaccharides NA1F+NA2F sum are reported and discussed.
Growth and production media for the adalimumab-producing CHO cell line #2 were prepared using a proprietary Life Technologies Gibco chemically defined media, GIA-1. […] All media were filtered through Corning 0.5 L or 1 L filter systems (0.22 μm PES) and stored at 4° C. until use.
Upon thaw, cells were expanded for 5 to 8 (2 to 3 day each) passages in a combination of 250 mL, 500 mL, and 1000 mL Corning vented non-baffled shake flasks. Production cultures were initiated in duplicate 500 mL Corning vented non-baffled shake flasks (200 mL working volume) at an initial VCD of approximately 0.5×10^6 cells/mL. Cultures were maintained on orbital shakers at 180 RPM in a dry incubator at 35° C. and 5% CO2. A glucose solution (1.25% (v/v) of 40% solution) was fed when the media glucose concentration fell below 3 g/L.
Galactose was supplemented at the following levels in production media: 0, 10, and 20 mM. […] This study was run in 2 blocks.

[2] = system: CHO cell line producing mAb #1; test: Example 7 oligosaccharide analysis, CDM GIA-1, batch shake flasks; type: cell-based, Chinese Hamster
Protocol: as §1, §2
Growth and production media for the CHO cell line producing mAb #1 were prepared using a proprietary Life Technologies Gibco chemically defined media, GIA-1. […] All media were filtered through Corning 0.5 L or 1 L filter systems (0.22 μm PES) and stored at 4° C. until use.
Upon thaw, cells were expanded for 6 (3 day each) passages in a combination of 250 mL, 500 mL, and 1000 mL Corning vented non-baffled shake flasks. Production cultures were initiated in duplicate 500 mL Corning vented non-baffled shake flasks (200 mL working volume) at an initial VCD of approximately 0.5×10^6 cells/mL. Cultures were maintained on orbital shakers at 125 RPM in a dry incubator at 35° C. and 5% CO2. A glucose solution (1.25% (v/v) of 40% solution) was fed when the media glucose concentration fell below 3 g/L. […]

[3] = system: adalimumab-producing CHO cell line; test: Example 2 culture growth & productivity, HyClone CDM4CHO; type: cell-based, Chinese Hamster; conditions: galactose 0 to 40 mM and/or manganese chloride up to 10 μM
Protocol: as §1
Growth and production media for the adalimumab-producing CHO cell line were prepared using Thermo Scientific HyClone chemically defined media CDM4CHO without L-glutamine (Catalogue #SH30558.02). […] All media were filtered through Corning 0.5 L or 1 L (0.22 μm PES) filter systems and stored at 4° C. until use.
Upon thaw, cells were adapted to and expanded in HyClone CDM4CHO media for 5 (2 to 3 day each) passages in a combination of 250 mL, 500 mL, and 1000 mL Corning vented non-baffled shake flasks. Production cultures were initiated in duplicate 500 mL Corning vented non-baffled shake flasks (200 mL working volume) at an initial VCD of approximately 0.5×10^6 cells/mL. Cultures were maintained on orbital shakers at 110 RPM in a dry incubator at 35° C. and 5% CO2. […]

[4] = system: adalimumab-producing CHO cell line; test: Example 3 oligosaccharide analysis, hydrolysate-based media, batch shake flasks; type: cell-based, Chinese Hamster
Protocol: as §1, §2
All media were filtered through Corning 0.5 L or 1 L filter systems (0.22 μm PES) and stored at 4° C. until use.
Production cultures were initiated in duplicate 500 mL Corning vented non-baffled shake flasks (200 mL working volume) at an initial VCD of approximately 0.5×10^6 cells/mL. Cultures were maintained on orbital shakers at 110 RPM in a dry incubator at 35° C. and 5% CO2. A glucose solution (1.25% (v/v) of 40% solution) was fed when the media glucose concentration fell below 3 g/L.

[5] = system: adalimumab-producing NSO cell line; test: Example 6 culture growth & productivity; type: cell-based; conditions: for culture growth and viability profiles: galactose 0 to 5 mM and/or manganese chloride up to 0.5 μM
Protocol: Growth and production media for the adalimumab-producing NSO cell line were prepared using a proprietary Life Technologies Gibco chemically defined media, PFBM-3 basal medium plus PFFM-4 feed medium.
Upon thaw, cells were expanded for 3 to 5 (2 days each) passages in a combination of 250 mL, 500 mL, 1 L, 2 L and 3 L Corning vented non-baffled shake flasks. Production cultures were initiated in single 1 L Corning vented non-baffled shake flasks (240 mL initial working volume) at an initial VCD of approximately 2.5×10^5 cells/mL. Cultures were maintained on orbital shakers at 100 RPM in a dry incubator at 37° C. and 5% CO2. The shake flask study was run in a fed-batch mode and the culture was fed PFFM-4 as follows: 24 mL—day 2, 28.8 mL—day 4, 28.8 mL—day 6, and 28.8 mL—day 8.
Samples were collected every 2 days and measured for cell density and viability using a Cedex cell counter. Retention samples for titer analysis via Poros A method were collected daily beginning on Day 8 by centrifugation at 2,000 g for 10 min and then filtered through 0.2 μm PVDF syringe filter. The cultures were harvested on production day 10. The entire culture was collected, chilled on ice to approximately 0° C. for 1.5 hours, the cells and debris flocculated at pH 5.0 by the addition of 1M citric acid and held for 15 minutes, and centrifuged at 4000x g for 15 min at 5° C. The supernatant was passed through 0.20 μm Millipore Stericup PES filters, and, immediately post filtration, the acidified clarified cell-free harvest was neutralized with 2M Tris to pH 7.1±0.2. The cell free harvest was transferred to PETG bottles and stored at −80° C. until analysis.
Galactose was supplemented at the following levels in both production and feed media: 0, 1, 4, 5, and 10 mM.

[6] = manganese chloride alone, range 0 to 40 μM

Row | Molecule | decrease in the NGA2F+NGA2F-GlcNac sum ([1]; 10 mM galactose alone) [%] | maximum decrease in the NGA2F+NGA2F-GlcNac sum ([1]; 20 mM galactose alone) [%] | maximum increase in the NA1F+NA2F sum ([1]; 20 mM galactose alone) [%] | decrease in the NGA2F+NGA2F-GlcNac sum ([2]; 40 mM galactose alone) [%] | maximum decrease in the NGA2F+NGA2F-GlcNac sum ([2]; galactose alone up to 40 mM) [%] | maximum increase in the NA1F+NA2F sum ([2]; galactose alone up to 40 mM) [%] | cell growth and viability profiles [3] | maximum decrease in the NGA2F+NGA2F-GlcNac sum ([4]; galactose alone up to 40 mM) [%] | maximum increase in the NA1F+NA2F sum ([4]; galactose alone up to 40 mM) [%] | culture growth and viability profiles [5] | effect on culture growth and productivity ([5]; galactose 10 mM) | harvest titer lower than control condition ([5]; galactose 10 mM) [%] | decrease in the NGA2F+NGA2F-GlcNac sum ([1]; 10 μM manganese chloride alone) [%] | maximum decrease in the NGA2F+NGA2F-GlcNac sum ([1]; 20 μM manganese chloride alone) [%] | maximum increase in the NA1F+NA2F sum ([1]; 20 μM manganese chloride alone) [%] | decrease in the NGA2F+NGA2F-GlcNac sum ([2]; 40 μM manganese chloride alone) [%] | maximum decrease in the NGA2F+NGA2F-GlcNac sum [2, 6] [%] | maximum increase in the NA1F+NA2F sum [2, 6] [%] | decrease in the NGA2F+NGA2F-GlcNac sum ([4]; manganese chloride alone, range 0 to 40 μM, within assay variability)
1 | O=C[C@H](O)[C@@H](O)[C@@H](O)[C@H](O)CO [galactose, D(+)Galactose] | 6 | 9 | 10 | 12 | 12 | 13 | comparable to the control cultures | 4 | 4 | comparable to the control condition | detrimental effect on culture growth and productivity | 60 |  |  |  |  |  |  | 
2 | Manganese (II) Chloride [manganese chloride] |  |  |  |  |  |  | comparable to the control cultures |  |  | comparable to the control condition |  |  | 18 | 22 | 23 | 20 | 26 | 27 | approximately 1%

From patent US9505834B2, “Methods for controlling the galactosylation profile of recombinantly-expressed proteins” (AbbVie Inc., priority 2011, dated 2016)
